From the supplement of paper PMC3493320 come the findings set out here.

The structures appear in SMILES notation. pIC50: −log10 of the molar value.

The test system of the assay is NCI-H295R. In words: IC50 (antiproliferative, ATP content). The conditions noted are these: 48 h. A digest of the protocol: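 Compounds were pin-transferred at 8 final concentrations between 0.6 nM and 46 µM onto adrenocortical carcinoma cells (1500 per well, 1536-well plates) that had been cultured overnight in serum-free DMEM with ITS. Plates then stood 48 h at 37 °C, 5% CO2, and ATP was detected by CellTiter-Glo luminescence. IC50 was derived from logistic fits of normalised signal, and compounds giving no concentration response were noted as above the top dose.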
For the compound `CCCc1nn(C)c2c(=O)[nH]c(-c3cc(S(=O)(=O)N4CCN(C)CC4)ccc3OCC)nc12.O=C(O)CC(O)(CC(=O)O)C(=O)O`, the negative logarithm of the IC50 (pIC50) is below 4.34. The compound `O=C(CCNNC(=O)c1ccncc1)NCc1ccccc1` showed a pIC50 below 4.34. Under `Cc1cc(NC(=O)C2=C(O)c3ccccc3S(=O)(=O)N2C)no1` stands below 4.34; under `CN1C(=O)CCS(=O)(=O)C1c1ccc(Cl)cc1` (stereo not drawn), below 4.34; under `COc1ccc2cc([C@H](C)C(=O)[O-])ccc2c1.[Na+]`, below 4.34. Compound `O=C(O)c1ccc[n+]([O-])c1` had a negative-log IC50 (pIC50) below 4.34. As for `CCCOC(=O)c1ccccc1O`, the negative-log IC50 (pIC50) is below 4.34. Under `CC(C)(C)C(=O)OCOC(=O)[C@@H]1N2C(=O)[C@@H](/N=C/N3CCCCCC3)[C@H]2SC1(C)C.Cl` stands below 4.34; under `Nc1ccc(C(=O)Oc2ccccc2)c(O)c1`, below 4.34; under `CCCCNc1ccc(C(=O)OCCN(C)C)cc1.Cl`, below 4.34. Under `C[C@@H](O)[C@H]1C(=O)N2C(C(=O)[O-])=C(SC3Cn4cnc[n+]4C3)[C@H](C)[C@H]12` (stereo partly drawn) stands below 4.34.

In the case of `C=C[C@]1(C)C[C@@H](OC(=O)CSCCN(CC)CC)[C@]2(C)[C@@H]3C(=O)CC[C@@]3(CC[C@@H]2C)[C@@H](C)[C@@H]1O`, the pIC50 is below 4.34. Under `OCCOc1ccccc1` stands below 4.34; under `CO[C@H]1C[C@H](O[C@H]2[C@H](C)[C@@H](O[C@@H]3O[C@H](C)C[C@H](N(C)C)[C@H]3O)[C@@H](C)C[C@]3(CO3)C(=O)[C@H](C)[C@@H](O)[C@@H](C)[C@@H](C)OC(=O)[C@@H]2C)O[C@@H](C)[C@@H]1O.O=P(O)(O)O`, below 4.34. `CC(C)c1c(CN(C)C(C)Cc2ccccc2)n(C)n(-c2ccccc2)c1=O` (stereo not drawn): the pIC50 is below 4.34.

Consider `O=C([C@@H]([C@]4=CC=CC=C4)CO)O[C@@H]2C[C@@H]3[C@H]1O[C@H]1[C@@H]([N@+](C)3C)C2`, for which the negative-log IC50 (pIC50) was below 4.34. Under `O=C(C1=C2CCCC1)N(COC([C@H]3C([C@@H]3/C=C(C)\C)(C)C)=O)C2=O` stands below 4.34; under `CC(C)(Sc1cc(C(C)(C)C)c(O)c(C(C)(C)C)c1)Sc1cc(C(C)(C)C)c(O)c(C(C)(C)C)c1`, below 4.34. Under `COc3ccccc3N2CCN(CCCN\C1=C\C(=O)N(C)C(=O)N1C)CC2` stands below 4.34; under `CCN(CC)CCOc1ccc2c(c1)C(=O)c1cc(OCCN(CC)CC)ccc1-2`, below 4.34.

Turning to `CN1CCCC(CN2c3ccccc3Sc3ccccc32)C1` (stereo not drawn), the pIC50 is below 4.34.

`CC(=O)N(CC(C)C(=O)O)c1c(I)cc(I)c(N)c1I` (stereo not drawn) had a negative-log IC50 (pIC50) below 4.34. Under `O=C1NCN(c2ccccc2)C12CCN(CC1COc3ccccc3O1)CC2` (stereo not drawn) stands below 4.34. Compound `CCOC(=O)COc1ccc2c(C)c(CCN(CC)CC)c(=O)oc2c1Cl.Cl` showed a pIC50 below 4.34. With `NCCCC(=O)O`, the pIC50 is below 4.34. Under `CN1C(=O)CC(c2ccccc2)C1=O` (stereo not drawn) stands below 4.34; under `N#C/C(=C1\SCC(c2ccccc2Cl)S1)n1ccnc1` (stereo not drawn), below 4.34; under `Nc1cc(-c2ccncc2)c[nH]c1=O`, below 4.34. Under `O=C(O)c1cc(N=Nc2ccc(S(=O)(=O)Nc3ccccn3)cc2)ccc1O` stands below 4.34; under `CC(=O)Nc1ccc(OCCOCCOc2ccc(NC(C)=O)cc2)cc1`, below 4.34. In turn, `O=C1C2CC3CC1CC(O)(C3)C2` had a pIC50 below 4.34.

In turn, `COc1cc2ncnc(Nc3ccc(F)c(Cl)c3)c2cc1OCCCN1CCOCC1` gave a pIC50 below 4.34. Under `CC(=O)OCC(=O)[C@@]1(O)CC[C@H]2[C@@H]3CCC4=CC(=O)C=C[C@]4(C)[C@@]3(F)[C@@H](O)C[C@@]21C` stands below 4.34; under `CC(C)CCCC(C)N` (stereo not drawn), below 4.34; under `Cc1cccc(N(C)C(=S)Oc2ccc3ccccc3c2)c1`, below 4.34.

Compound `O=C(O)CCn1c2c(c3ccccc31)C[C@H](NS(=O)(=O)c1ccc(F)cc1)CC2` gave a pIC50 below 4.34. Take `C=C[C@H]1C[N@@]2CC[C@H]1C[C@H]2[C@H](OC(=O)OCC)c1ccnc2ccc(OC)cc12`: the negative-log IC50 (pIC50) was below 4.34. Under `NC(=O)c1cn(Cc2c(F)cccc2F)nn1` stands below 4.34; under `CN(C)[C@@H]1C(O)=C(C(N)=O)C(=O)[C@@]2(O)C(O)=C3C(=O)c4c(O)cccc4[C@@](C)(O)[C@H]3[C@H](O)[C@@H]12.O.O`, below 4.34; under `O=[N+]([O-])O[C@H]1CO[C@H]2[C@@H]1OC[C@H]2O[N+](=O)[O-]`, below 4.34. With `O=C(O)CN(CCN(CC(=O)O)CC(=O)O)CCN(CC(=O)O)CC(=O)O`, the pIC50 was below 4.34. `CC(O)C(=O)O` (stereo not drawn) showed a pIC50 below 4.34. Under `Cc1cc2c(s1)Nc1ccccc1N=C2N1CCN(C)CC1` stands below 4.34; under `O=C(CN1CCNCC1)NC1CCCCC1`, below 4.34. Under `CCOc1ccc(NC(=O)CC(C)O)cc1` (stereo not drawn) stands below 4.34. As to `O=c1ccc2ccccc2o1`, the negative-log IC50 (pIC50) was below 4.34. Compound `CCCCC[C@@H](O)C1C(=O)OC(C)C(O)/C=C/C=C/C=C/C=C/C=C(\C)C(O)C(O)C(O)C[C@H](O)C[C@H](O)C[C@H](O)C[C@H](O)C[C@@H]1O` (stereo partly drawn) gave a pIC50 below 4.34. For `COc1cc2c(cc1OC)CC(=O)N(CCCN(C)C[C@H]1Cc3cc(OC)c(OC)cc31)CC2.Cl`, the pIC50 was below 4.34. Under `COC(=O)C1=CCCN(C)C1` stands below 4.34; under `O=C2N1[C@]([C@@]([H])2NC(C3=C(C)ON=C3C(C(Cl)=CC=C4)=C4F)=O)([H])SC(C)(C)[C@@H]1[C@@]([O-])=O.O.[Na+]`, below 4.34; under `OCCOCCOCCO`, below 4.34. Under `ClC4=CC3=[C@@](C=C4O)[C@H]2C1=CC=CC=C1CC[C@@H]2N(C)CC3` stands below 4.34. The compound `C[N+](C)(C)CCOC(N)=O.[Cl-]` showed a negative logarithm of the IC50 (pIC50) below 4.34. Take `CO[C@H]1/C=C/O[C@@]2(C)Oc3c(C)c(O)c4c(O)c(c5c(nc6cc(C)ccn65)c4c3C2=O)NC(=O)/C(C)=C\C=C\[C@H](C)[C@H](O)[C@@H](C)[C@@H](O)[C@@H](C)[C@H](OC(C)=O)[C@@H]1C`: the pIC50 is below 4.34. Under `CC(=O)N[C@H]1C(O)O[C@H](CO)[C@@H](O)[C@@H]1O` (stereo partly drawn) stands below 4.34; under `O.O=C(O)[C@@H]1[C@H]2C[C@H]3c4[nH]c5ccccc5c4CCN3C[C@@H]2CC[C@@H]1O`, below 4.34; under `Oc1ccc(Cl)cc1`, below 4.34. In turn, `C=CCN1CC[C@]23c4c5ccc(O)c4O[C@H]2C(=O)CC[C@@]3(O)[C@H]1C5` gave a negative-log IC50 (pIC50) below 4.34.

Take `C=CCN1CC[C@]23CCCC[C@H]2[C@H]1Cc1ccc(O)cc13`: the pIC50 was below 4.34. Under `CC(C(=O)O)c1ccc(-c2ccccc2)c(F)c1` (stereo not drawn) stands below 4.34; under `CN1C(=O)CN2CCc3ccccc3C2c2cc(Cl)ccc21` (stereo not drawn), below 4.34; under `[O]=[Cd]`, below 4.34. In turn, `O=C(O)COc1ccc(C(=O)c2cccs2)c(Cl)c1Cl` showed a pIC50 below 4.34. Under `CNC(=O)NC(O)C(Cl)(Cl)Cl` (stereo not drawn) stands below 4.34; under `O=C3N1/C(=C(/C)CS[C@@H]1[C@@H]3NC(=O)[C@H](N)c2ccccc2)C(O)=O`, below 4.34.

`Clc1ccc(Cl)cc1` had a pIC50 below 4.34. Under `N=C(N)NN=Cc1c(Cl)cccc1Cl` stands below 4.34. Under `C[C@]41/C=C\C(=O)\C=C4\C(=C)C[C@H]2[C@@H]3CCC(=O)[C@@]3(C)CC[C@H]12` stands below 4.34. With `CN(C)CCCN1c2ccccc2Sc2ccccc21.Cl`, the negative-log IC50 (pIC50) was below 4.34. Turning to `NC(=O)Oc1ccc(Cc2ccccc2)cc1`, the pIC50 is below 4.34. Under `CCCCCCCCCCOCC(O)CN.Cl` (stereo not drawn) stands below 4.34.

In turn, `CC(C)[C@H](N)C(=O)OCCOCn1cnc2c(=O)[nH]c(N)nc21.Cl` gave a negative logarithm of the IC50 (pIC50) below 4.34. Under `CC(C)=CCC/C(C)=C/C=C/C(C)=C/C=C/C(C)=C/C=C/C=C(C)/C=C/C=C(C)/C=C/C=C(\C)CCC=C(C)C` stands below 4.34. Consider `O=C(O)c1ccc2[nH]cc(CCCCN3CC=C(c4ccccc4)CC3)c2c1`, for which the negative logarithm of the IC50 (pIC50) is below 4.34.

Turning to `O=S(=O)(O)c1cc(I)c(O)c2ncccc12`, the negative-log IC50 (pIC50) is below 4.34.

In turn, `BrC=7Nc1cccc\6c1C=7C[C@@H]2C/6=C/[C@H](CN2C)C(=O)N[C@@]3(O[C@]5(O)N(C3=O)[C@@H](CC(C)C)C(=O)N4CCC[C@H]45)C(C)C` had a pIC50 below 4.34. For `Cc1c(C(=O)NCCO)[n+]([O-])c2ccccc2[n+]1[O-]`, the negative-log IC50 (pIC50) was below 4.34. As to `O=C/C=C/c1ccccc1`, the negative logarithm of the IC50 (pIC50) was below 4.34. Under `CC(=O)[C@@]3(O)CC[C@H]4[C@@H]5/C=C(/Cl)\C2=C\C(=O)[C@@H]1C[C@@H]1[C@]2(C)[C@H]5CC[C@]34C` stands below 4.34; under `COc1cc2nc(N3CCN(C(=O)C4CCCO4)CC3)nc(N)c2cc1OC.Cl` (stereo not drawn), below 4.34. Under `Cl.O=c1n(CCCN2CCN(c3cccc(Cl)c3)CC2)nc2ccccn12` stands below 4.34. Under `O=C1N(C(C(O)=O)=C(CSC4=NN=NN4C)CS2)[C@@]2([H])[C@@]([H])1NC([C@@H]([C@@](C=C5)=CC=C5O)NC(C3=C(O)C=C(C)N=C3)=O)=O` stands below 4.34; under `CN(C)C(=S)SC(=S)N(C)C`, below 4.34. In turn, `CCN(CC)CCNC(=O)c1cc(Cl)c(N)cc1OC` showed a negative-log IC50 (pIC50) below 4.34. Under `O=[C@](O)[C@@H]1[C@@H](CC(O)=O)[C@@H]([C@](C)=C)CN1` stands below 4.34; under `O=NN(CCCl)C(=O)NCCCl`, below 4.34.

Consider `O=C(O)CN1C(=O)c2cccc3cccc(c23)C1=O`, for which the pIC50 is below 4.34. Under `Cc1cccc(C(C)c2c[nH]cn2)c1C` (stereo not drawn) stands below 4.34.
